Experimental data: US20040002842A1, “Methods and systems for analyzing complex biological systems” (priority 2001, published 2004)
Entries after “also recorded” stand apart in the source; their conditions may differ.

Assays:
[1] = system: Arabidopsis thaliana plants; assay: SOA1 phenotypic analysis of herbicide-treated plants (incl. MIC/Tmic); assay type: in vivo; conditions: for leafCurling, Dev. / leafTwisting, Dev. / leafWidth, Dev. / matureLeafAnthocyanins, Dev. / matureLeafChlorosis, Dev. / matureLeafNecrosis, Dev. / newLeafAnthocyanins, Dev. / newLeafChlorosis, Dev. / newLeafNecrosis, Dev. / pointedLeaves, Dev.: herbicide sprayed on 21-day plants, numeric value standardized to mock treated; for tMic, Dev.: score for time to full symptoms at minimum inhibitory concentration; for characteristic symptoms (morphological phenotype): herbicide-treated plants
[2] = system: Arabidopsis thaliana; assay: MOA1 gene expression profiling (22,000 gene array); conditions: 1 hr; for Regulated Genes Following Herbicide Treatment: Down / Regulated Genes Following Herbicide Treatment: Up: p < 0.5; for No. of Lethal Genes Altered: regulated genes compared to list of essential (lethal) genes
[3] = system: Magnaporthe grisea; assay type: cell-based
[4] = system: Arabidopsis thaliana; assay: MOA1 biochemical (metabolite) profiling by LC-MS and GC-MS; conditions: for stress related metabolites: within one hour after spraying
[5] = system: Arabidopsis plants; conditions: nitrate addition to N-starved plants; cited from earlier work

| Compound | leafCurling, Dev. [1] | leafTwisting, Dev. [1] | leafWidth, Dev. [1] | matureLeafAnthocyanins, Dev. [1] | matureLeafChlorosis, Dev. [1] | matureLeafNecrosis, Dev. [1] | newLeafAnthocyanins, Dev. [1] | newLeafChlorosis, Dev. [1] | newLeafNecrosis, Dev. [1] | pointedLeaves, Dev. [1] | tMic, Dev. [1] | characteristic symptoms (morphological phenotype) [1] | further results |
| --- | --- | --- | --- | --- | --- | --- | --- | --- | --- | --- | --- | --- | --- |
| O=C(O)COc1ccc(Cl)cc1Cl [2,4-D] | 1 | 2 | −1 | 1 | 2 | 0 | 0 | 1 | 0 | 0 | 2 | – | Symptom Class ([1]; phenotype class of three-week-old treated plants (FIG. 12)): 5 |
| O=C(O)c1cc(Oc2ccc(C(F)(F)F)cc2Cl)ccc1[N+](=O)[O-] [Acifluorfen] | – | – | – | – | – | – | – | – | – | – | – | Necrotic leaf flecks | – |
| Nc1nc[nH]n1 [Amitrole] | – | – | – | – | – | – | – | – | – | – | – | leaf bleaching and leaf enlargement | – |
| COC(=O)NS(=O)(=O)c1ccc(N)cc1 [Asulam] | – | – | – | – | – | – | – | – | – | – | – | – | Regulated Genes Following Herbicide Treatment: Down [2]: 7; Regulated Genes Following Herbicide Treatment: Up [2]: 80; No. of Lethal Genes Altered [2]: 5 |
| CCNc1nc(Cl)nc(NC(C)C)n1 [Atrazine] | – | – | – | – | – | – | – | – | – | – | – | rapid and widespread leaf necrosis | – |
| CC(C)N1C(=O)c2ccccc2NS1(=O)=O [Bentazon] | – | – | – | – | – | – | – | – | – | – | – | rapid and widespread leaf necrosis | – |
| COc1nc(C)nc(NC(=O)NS(=O)(=O)c2ccccc2Cl)n1 [Chlorsulfuron] | – | – | – | – | – | – | – | – | – | – | – | anthocyanin accumulation in the older leaves accompanied by chlorosis of the newly emerging leaves | Regulated Genes Following Herbicide Treatment: Up [2]: 97; No. of Lethal Genes Altered [2]: 8 |
| c1cc[n+]2c(c1)-c1cccc[n+]1CC2 [Diquat] | 2 | 0 | −2 | 0 | 1 | 4 | 0 | 1 | 4 | 1 | 2 | rapid and widespread leaf necrosis | – |
| CN(C)C(=O)Nc1ccc(Cl)c(Cl)c1 [Diuron] | 1 | 0 | −2 | 0 | 2 | 4 | 0 | 2 | 4 | 1 | 1 | rapid and widespread leaf necrosis | – |
| CP(=O)(O)CCC(N)C(=O)O (centres unmarked) [Glufosinate] | 2 | 1 | −2 | 0 | 3 | 0 | 0 | 3 | 0 | 1 | 1 | Chlorosis and leaf curling | Nitrogen source utilization by M. grisea ([3]; in the presence of glufosinate): only able to utilize glutamine and glutamate as nitrogen sources; Regulated Genes Following Herbicide Treatment: Down [2]: 54; Regulated Genes Following Herbicide Treatment: Up [2]: 296; No. of Lethal Genes Altered [2]: 10; stress related metabolites [4]: Only a few, if any |
| O=C(O)CNCP(=O)(O)O [Glyphosate] | 0 | 0 | 0 | 3 | 1 | 3 | 1 | 2 | 0 | 1 | 2 | anthocyanin accumulation in the older leaves accompanied by chlorosis of the newly emerging leaves | Growth of M. grisea, Tiers 3 and 4 media [3]: nearly identical as compared to Unknown 4; also recorded: inhibited growth of M. grisea when nitrate, nitrite, or glutamate was provided as the sole nitrogen source; Growth inhibition of M. grisea ([3]; glyphosate at 1.0 mg/ml): remediated by inclusion of aromatic amino acids to the media; tyrosine level relative to the control ([4]; after one hour): decreased |
| CC(C)C1(C)N=C(c2ncccc2C(=O)O)NC1=O (centres unmarked) [Imazapyr] | – | – | – | – | – | – | – | – | – | – | – | anthocyanin accumulation in the older leaves accompanied by chlorosis of the newly emerging leaves | stress related metabolites [4]: Only a few, if any |
| CCc1cnc(C2=NC(C)(C(C)C)C(=O)N2)c(C(=O)O)c1 (centres unmarked) [Imazethapyr] | – | – | – | – | – | – | – | – | – | – | – | anthocyanin accumulation in the older leaves accompanied by chlorosis of the newly emerging leaves | – |
| CS(=O)(=O)c1cc(C(F)(F)F)ccc1C(=O)c1cnoc1C1CC1 [Isoxaflutole] | – | – | – | – | – | – | – | – | – | – | – | – | Growth of M. grisea in minimal plus tyrosine and minimal media ([3]; concentrations insufficient to inhibit growth): inhibited in minimal plus tyrosine media, while growth in minimal media was unaffected; alterations in the expression of genes of the homogentisate biosynthetic pathway [2]: not observed; Regulated Genes Following Herbicide Treatment: Down [2]: 370; No. of Lethal Genes Altered [2]: 15; Alpha-tocopherol level relative to the control ([4]; early time points): not significantly changed; tyrosine and phenylalanine level relative to the control ([4]; metabolite data, early time points (1 hr)): up-regulated; also recorded: began to accumulate relative to the control after one hour |
| CSc1nnc(C(C)(C)C)c(=O)n1N [Metribuzin] | – | – | – | – | – | – | – | – | – | – | – | rapid and widespread leaf necrosis | – |
| O=C(O)c1ccccc1C(=O)Nc1cccc2ccccc12 [Naptalam] | – | – | – | – | – | – | – | – | – | – | – | – | Regulated Genes Following Herbicide Treatment: Down [2]: 47; Regulated Genes Following Herbicide Treatment: Up [2]: 50; No. of Lethal Genes Altered [2]: 3 |
| O=[N+]([O-])O [Nitrate, nitrate] | – | – | – | – | – | – | – | – | – | – | – | – | Nitrate Regulation of Glutamate synthetase gene [5]: ↑; Nitrate Regulation of Glutamine synthetase (2) genes [5]: ↑; Nitrate Regulation of MADs Box (2) genes [5]: ↓; Nitrate Regulation of MYB transcription factor gene [5]: ↑; Nitrate Regulation of Malate Dehydrogenase gene [5]: ↑; Nitrate Regulation of Nitrate transporter gene [5]: ↑; Nitrate Regulation of Phosphate transporter gene [5]: ↑; Nitrate Regulation of Transaldolase gene [5]: ↑; Nitrate Regulation of Transketolase gene [5]: ↑ |
| CNc1cnn(-c2cccc(C(F)(F)F)c2)c(=O)c1Cl [Norfluazon, Norflurazon] | – | – | – | – | – | – | – | – | – | – | – | – | stress related metabolites [4]: Only a few, if any |
| C[n+]1ccc(-c2cc[n+](C)cc2)cc1 [Paraquat] | 2 | 0 | −1 | 0 | 1 | 4 | 0 | 1 | 4 | 1 | 2 | rapid and widespread leaf necrosis | – |
